Legend:
NOP receptor = details: cited from earlier work
mouse vas deferens = details: isolated mouse vas deferens; cited from earlier work
Excerpt: On comparing the data with a wider range of pharmacological assays carried in vitro or in vivo, noticeable discrepancies are only apparent for a number of synthetic peptides that are known as NOP partial agonists. Such divergences are likely explained by the variations in stimulus/response coupling efficiency that characterize different pharmacological preparations. In fact, in accordance with classical receptor theory, the effect of a partial agonist can range from none to an almost full response, depending on the extent of amplification that the sensitivity of the signaling pathway exerts on ... || Also the estimates of antagonist potency derived from BRET analysis were in substantial agreement with similar determinations made in a variety of different pharmacological studies. […] We found, however, that a 3-fold increase in ...

[1] = molecular target: Human NOP Rluc-tagged fusion protein (N/OFQ peptide receptor fused to Renilla luciferase) (human) (UniProt P41146)
Sequence of Human NOP Rluc-tagged fusion protein (N/OFQ peptide receptor fused to Renilla luciferase) (human) (P41146 whole entry, the tested form may be a part): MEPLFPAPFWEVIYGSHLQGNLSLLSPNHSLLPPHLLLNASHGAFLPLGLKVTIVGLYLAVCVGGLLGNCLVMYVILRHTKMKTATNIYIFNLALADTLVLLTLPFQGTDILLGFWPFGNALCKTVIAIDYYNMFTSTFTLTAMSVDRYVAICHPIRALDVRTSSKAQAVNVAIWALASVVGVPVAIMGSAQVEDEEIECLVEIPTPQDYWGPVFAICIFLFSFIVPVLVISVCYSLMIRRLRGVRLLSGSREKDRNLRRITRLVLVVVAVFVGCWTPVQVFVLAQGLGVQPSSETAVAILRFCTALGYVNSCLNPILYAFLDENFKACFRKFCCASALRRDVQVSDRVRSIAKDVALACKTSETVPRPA

In the case of Cc1cccc2c1CC[C@H](CN1CCC(c3c(Cl)cccc3Cl)CC1)C[C@@H]2O [SB-612111, (-)-cis-1-methyl-7-[[4-(2,6-dichlorophenyl)piperidin-1-yl]methyl]-6,7,8,9-tetrahy dro-5H-benzocyclohepten-5-ol], the “antagonist potency estimate (pKB), [^35S]GTPγS binding” value (NOP receptor) is listed as 9.70 and the “reversibility of antagonist action on washing” value (mouse vas deferens) is listed as “remains unchanged even after 3 hours of repeated washing”.
In the case of UFP-101 (peptide), the pA2, rightward shift of the concentration-response curve of N/OFQ for arrestin coupling (BRET, whole cells); value as the sentence prints it, differs from Table 3 (pA2 (-log10 M)) [1] is reported as 9.42.

From PMC4527783 (PLoS ONE, 2015)
